We go through 41 compounds from patent US7511041B2, “Fused azole-pyrimidine derivatives” (Bayer Pharmaceuticals Corporation, priority 2002, dated 2009).

For series [1], the target named is T1, Recombinant human PI3Kγ (full length human PI3K p110γ) (Homo sapiens, UniProt P48736).
T1 construct: full length human PI3K p110γ fused with a His6-tag at the C-terminus; His6 (C); purchased ALEXIS BIOCHEMICALS #201-055-C010; host or cells: S. frugiperda 9 insect cells
Nature of the series: Kinase assay of PI3Kγ (solid-phase lipid kinase assay). In kind it is biochemical. Particulars: in vitro PI3K-γ inhibitory activity, class symbols; read-out: in vitro PI3K-gamma.

T1 sequence (P48736 whole entry, the tested form may be a part): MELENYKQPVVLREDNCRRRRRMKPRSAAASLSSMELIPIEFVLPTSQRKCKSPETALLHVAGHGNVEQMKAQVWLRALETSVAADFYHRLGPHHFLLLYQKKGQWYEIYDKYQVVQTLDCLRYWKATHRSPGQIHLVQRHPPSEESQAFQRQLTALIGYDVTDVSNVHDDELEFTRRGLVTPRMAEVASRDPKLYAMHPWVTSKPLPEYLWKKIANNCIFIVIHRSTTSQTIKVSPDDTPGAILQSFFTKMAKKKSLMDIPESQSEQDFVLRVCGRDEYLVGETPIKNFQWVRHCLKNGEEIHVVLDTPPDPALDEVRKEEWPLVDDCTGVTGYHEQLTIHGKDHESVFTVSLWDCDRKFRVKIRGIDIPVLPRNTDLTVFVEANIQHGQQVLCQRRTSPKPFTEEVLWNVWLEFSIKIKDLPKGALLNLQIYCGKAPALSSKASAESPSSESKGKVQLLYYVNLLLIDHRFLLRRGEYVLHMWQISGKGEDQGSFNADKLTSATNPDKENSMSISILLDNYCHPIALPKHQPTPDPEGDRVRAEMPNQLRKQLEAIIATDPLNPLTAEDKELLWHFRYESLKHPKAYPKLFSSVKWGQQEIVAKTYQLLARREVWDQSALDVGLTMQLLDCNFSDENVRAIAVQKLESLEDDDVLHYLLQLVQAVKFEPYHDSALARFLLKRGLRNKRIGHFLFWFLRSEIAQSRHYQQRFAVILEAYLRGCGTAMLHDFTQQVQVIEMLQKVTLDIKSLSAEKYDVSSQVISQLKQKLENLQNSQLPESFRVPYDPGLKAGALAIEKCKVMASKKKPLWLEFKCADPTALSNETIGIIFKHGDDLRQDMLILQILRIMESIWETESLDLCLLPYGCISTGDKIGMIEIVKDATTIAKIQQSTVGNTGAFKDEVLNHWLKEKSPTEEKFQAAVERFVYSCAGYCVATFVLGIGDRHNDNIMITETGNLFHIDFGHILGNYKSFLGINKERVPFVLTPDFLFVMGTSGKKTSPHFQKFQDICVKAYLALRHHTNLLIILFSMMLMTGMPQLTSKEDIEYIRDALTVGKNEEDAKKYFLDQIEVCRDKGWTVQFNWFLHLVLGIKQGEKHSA

As to `COc1cc2c(cc1OC)C1=NCCN1C(NC(=O)c1cncc(O)c1)=N2` [Example 2-54], the melting point is 287 °C (dec.). Besides, the IC50 in series [1] was below 100 nM.

Consider `COc1cc2c(cc1OC)C1=NCCN1C(NC(=O)c1ccc(N)nc1)=N2.Cl` [Example 2-56], for which the melting point is 256 °C. For the same compound, the IC50 in series [1] fell in the range of 100 to 500 nM.

For the compound `COc1cc2c(cc1OC)C1=NCCN1C(NC(=O)c1ccc(NC(C)=O)nc1)=N2` [Example 2-57], the melting point amounted to 224 °C. Besides, in series [1], the IC50 is 100 to 500 nM.

`COc1cc2c(cc1OC)C1=NCCN1C(NC(=O)c1cncc(C)c1)=N2.Cl` [Example 2-59]: the melting point is 257 °C (dec.). Besides, in series [1], the IC50 is 100 to 500 nM.

With `COc1cc2c(cc1OC)C1=NCCN1C(NC(=O)c1ccc3[nH]cnc3c1)=N2` [Example 2-60], the melting point stood at 246 °C. In addition, the IC50 in series [1] is below 100 nM.

In the case of `COc1cc2c(cc1OC)C1=NCCN1C(NC(=O)c1cccs1)=N2` [Example 2-62], the melting point was 248 °C. Moreover, the IC50 in series [1] is 100 to 500 nM.

Regarding `COc1cc2c(cc1OC)C1=NCCN1C(NC(=O)c1cn[nH]c1)=N2.Cl` [Example 2-63], the melting point is 270 °C (dec.). The IC50 in series [1] was in the range of 100 to 500 nM.

The compound `COc1cc2c(cc1OC)C1=NCCN1C(NC(=O)c1cc(C)nn1C)=N2` [Example 2-64] had a melting point of 236 to 237 °C. In addition, the IC50 in series [1] lay in the range of 100 to 500 nM.

`COc1ccc2c(c1Br)N=C(NC(=O)c1cccnc1)N1CCN=C21` [Example 2-65] returned a melting point of 264 °C. For the same compound, the IC50 in series [1] was below 100 nM.

Consider `COc1cc2c(cc1Br)C1=NCCN1C(NC(=O)c1cccnc1)=N2.Cl` [Example 2-67], for which the melting point is 289 °C (dec.). Moreover, the IC50 in series [1] is 100 to 500 nM.

For the compound `COc1cc(OC)c2c(c1)C1=NCCN1C(NC(=O)c1cccnc1)=N2` [Example 2-68], the melting point was 228 °C (dec.). In series [1], the IC50 is below 100 nM.

Turning to `COc1cc(OC)c2c(c1)C1=NCCN1C(NC(=O)c1cccnc1)=N2.Cl` [Example 2-69], the melting point was 275 °C (dec.). Moreover, the IC50 in series [1] lay in the range of 100 to 500 nM.

As to `COc1cc(OC)c2c(c1)C1=NCCN1C(NC(=O)c1ccc(NC(C)=O)nc1)=N2` [Example 2-70], the melting point is 286 °C (dec.). For the same compound, the IC50 in series [1] fell in the range of 100 to 500 nM.

Regarding `COc1cc(OC)c2c(c1)C1=NCCN1C(NC(=O)c1ccc3[nH]cnc3c1)=N2` [Example 2-72], the melting point was 210 °C (dec.). In series [1], the IC50 is below 100 nM.

Take `Cc1cc(Br)c2c(c1)C1=NCCN1C(NC(=O)c1cccnc1)=N2.Cl` [Example 2-74]: the melting point is 220 °C. Besides, the IC50 in series [1] was below 100 nM.

As for `Cc1cc(Br)c2c(c1)C1=NCCN1C(NC(=O)c1ccc3[nH]cnc3c1)=N2` [Example 2-75], the melting point is above 290 °C. For the same compound, the IC50 in series [1] is 100 to 500 nM.

Consider `COc1cc2c(c(OC)c1C)N=C(NC(=O)c1cccnc1)N1CCN=C21.Cl` [Example 2-76], for which the melting point was 235 °C (dec.). Also, the IC50 in series [1] was 100 to 500 nM.

`COc1cc2c(c(OC)c1C)N=C(NC(=O)c1cccnc1C)N1CCN=C21` [Example 2-77]: the melting point was 210 °C (dec.). Moreover, the IC50 in series [1] was below 100 nM.

In the case of `COc1cc2c(c(OC)c1C)N=C(NC(=O)c1ccc(NC(C)=O)nc1)N1CCN=C21` [Example 2-79], the melting point was above 310 °C. Moreover, the IC50 in series [1] fell in the range of 100 to 500 nM.

Turning to `COc1cc2c(c(OC)c1C)N=C(NC(=O)c1ccc(NC(C)=O)nc1)N1CCN=C21.Cl` [Example 2-80], the melting point is 305 °C (dec.). Besides, in series [1], the IC50 is below 100 nM.

Regarding `COc1cc2c(c(OC)c1C)N=C(NC(=O)c1ccc3[nH]cnc3c1)N1CCN=C21` [Example 2-81], the melting point turned out to be 202 °C. Further, the IC50 in series [1] is 100 to 500 nM.

`Cl.O=C(NC1=Nc2ccc(F)cc2C2=NCCN12)c1ccc2[nH]cnc2c1` [Example 2-83] gave a melting point above 300 °C. The IC50 in series [1] lay within 100 to 500 nM.

Compound `O=C(NC1=Nc2ccc(Cl)cc2C2=NCCN12)c1cccnc1` [Example 2-84] registered a melting point of 210 °C. The IC50 in series [1] fell in the range of 100 to 500 nM.

As for `Cl.O=C(NC1=Nc2ccc(Cl)cc2C2=NCCN12)c1ccc2[nH]cnc2c1` [Example 2-86], the melting point was 305 °C (dec.). The IC50 in series [1] lay in the range of 100 to 500 nM.

Take `O=C(NC1=Nc2ccc(Br)cc2C2=NCCN12)c1cccnc1` [Example 2-87]: the melting point is 228 °C. The IC50 in series [1] was in the range of 100 to 500 nM.

Compound `Cl.O=C(NC1=Nc2ccc(Br)cc2C2=NCCN12)c1ccc2[nH]cnc2c1` [Example 2-89] yielded a melting point of 288 °C. Further, in series [1], the IC50 lay within 100 to 500 nM.

Compound `Cc1ccc2c(c1)C1=NCCN1C(NC(=O)c1cccnc1)=N2` [Example 2-90] gave a melting point of 210 °C. The IC50 in series [1] is below 100 nM.

In the case of `Cc1ccc2c(c1)C1=NCCN1C(NC(=O)c1cccnc1)=N2.Cl` [Example 2-91], the melting point is above 290 °C. For the same compound, the IC50 in series [1] lay within 100 to 500 nM.

`Cc1ccc2c(c1)C1=NCCN1C(NC(=O)c1ccc3[nH]cnc3c1)=N2.Cl` [Example 2-92] displayed a melting point above 290 °C. The IC50 in series [1] is below 100 nM.

Regarding `COc1ccc2c(c1)C1=NCCN1C(NC(=O)c1cccnc1)=N2.Cl` [Example 2-93], the melting point is above 300 °C. Besides, the IC50 in series [1] lay within 100 to 500 nM.

Turning to `COc1ccc2c(c1)C1=NCCN1C(NC(=O)c1ccc3[nH]cnc3c1)=N2.Cl` [Example 2-94], the melting point was 288 °C. The IC50 in series [1] was below 100 nM.

`C=Cc1ccc2c(c1)C1=NCCN1C(NC(=O)c1cccnc1)=N2` [Example 2-95] yielded a melting point of 196 to 198 °C. The IC50 in series [1] was in the range of 100 to 500 nM.

As to `Cl.O=C(NC1=Nc2ccc(-c3ccco3)cc2C2=NCCN12)c1cccnc1` [Example 2-97], the melting point fell in the range of 298 to 299 °C. Further, in series [1], the IC50 lay in the range of 100 to 500 nM.

`Cl.O=C(NC1=Nc2cccc(Cl)c2C2=NCCN12)c1cccnc1` [Example 2-98]: the melting point came to 249 °C. The IC50 in series [1] fell in the range of 100 to 500 nM.

In turn, `O=C(NC1=Nc2c(F)cccc2C2=NCCN12)c1cccnc1` [Example 2-99] had a melting point of 243 °C. In addition, the IC50 in series [1] is 100 to 500 nM.

For `Cl.O=C(NC1=Nc2c(F)cccc2C2=NCCN12)c1cccnc1` [Example 2-100], the melting point was 288 °C. Moreover, the IC50 in series [1] is below 100 nM.

In the case of `O=C(NC1=Nc2c(F)cccc2C2=NCCN12)c1ccc2[nH]cnc2c1` [Example 2-101], the melting point was above 300 °C. Moreover, in series [1], the IC50 was below 100 nM.

The compound `Cl.O=C(NC1=Nc2c(Cl)cccc2C2=NCCN12)c1cccnc1` [Example 2-103] had a melting point above 280 °C. Moreover, the IC50 in series [1] was 100 to 500 nM.

For the compound `CC(=O)Nc1ccc(C(=O)NC2=Nc3c(Cl)cccc3C3=NCCN23)cn1` [Example 2-104], the melting point was above 280 °C. Also, in series [1], the IC50 fell in the range of 100 to 500 nM.

Take `CC(=O)Nc1ccc(C(=O)NC2=Nc3c(Cl)cccc3C3=NCCN23)cn1.Cl` [Example 2-105]: the melting point is above 280 °C. The IC50 in series [1] was below 100 nM.

In the case of `Cl.O=C(NC1=Nc2c(Cl)cccc2C2=NCCN12)c1ccc2[nH]cnc2c1` [Example 2-106], the melting point is above 280 °C. In series [1], the IC50 was 100 to 500 nM.

In general, melting point refers to the temperature of the solid-liquid transition.
